According to patent US4309432A, “Compositions for treating glaucoma containing a carbostyril” (priority 1979, dated 1982):
Where “and” joins values, the source holds several entries; their conditions need not be identical. Identical values can stand only once. Counter-ions that a name gives are not always drawn.

How the values were obtained:
intraocular pressure = experiment: Efficacy Test 3: intraocular pressure in normal rabbits (Alcon pneumatic tonometer); assay type: in vivo, rabbit (male New Zealand Albino); conditions: for Intraocular pressure 30 minutes after instillation, average / Intraocular pressure 1 hour after instillation, average / Intraocular pressure 30 minutes after instillation / Intraocular pressure 1 hour after instillation: 1% (W/V), 100 μl
Experimental: Male rabbits of New Zealand Albino strain, weighing 1.8 to 2.5 kg, are used as experimental animals. Intraocular pressure is measured with an Alcon pneumatic tonometer without local anesthesia, while holding the animal in a cylindrical rabbit holder.
The test compound is dissolved in a physiological solution of NaCl to a concentration of 1% (W/V), and the resulting solution is adjusted to a pH of 6.5 to 7.0 with a 0.01 N aqueous NaOH solution. The solution is instilled to one of the eyes of the animal in an accurate amount of 100 μl with a microsyringe after measuring the intraocular pressure of the eye. The eyelid is held closed for 1 minute after the instillation to prevent the escape of the solution.
The efficacy of the test compound is determined by measuring the intraocular pressure 30 minutes and 1 hour after the instillation and comparing the measurements with the pressure measured before the instillation. A 100 μl quantity of physiological saline containing no test compound is similarly tested on a control group.

mice = experiment: Acute Toxicity Test, intravenous, mice; assay type: in vivo
Experimental: (§1) Active compounds useful for the glaucoma treating compositions of this invention are intravenously administered to mice to test the compounds for acute toxicity.
(§2) Other active compounds of this invention are also tested for acute toxicity in the same manner as above, i.e., by intravenously administering them to mice. The LD50 values determined are all not lower than about 40 mg/kg.

[1] = Acute Toxicity Test, intravenous, mice; assay type: in vivo; conditions: mouse, in vivo
Experimental: as §1, §2

[2] = Acute toxicity, oral administration, male rats; conditions: rat, in vivo
Text: *Determined by the oral administration of Compound C to male rats.

Compound	Intraocular pressure 30 minutes after instillation, average (intraocular pressure; average of animals) [mm Hg]	Intraocular pressure 1 hour after instillation, average (intraocular pressure; average of animals) [mm Hg]	further results
COc1ccc(CCNCC(O)COc2ccc(NC(C)=O)c3c2CCC(=O)N3)cc1OC (stereo not drawn) [Compound L, 8-Acetylamino-5-[2-hydroxy-3-(β-3,4-dimethoxyphenethylamino)]propoxy-3,4-dihydrocarbostyril hydrochloride]	18.0	17.5	Intraocular pressure 30 minutes after instillation (intraocular pressure; individual animal): 18 mm Hg
COc1ccc(CCNCC(O)COc2ccc(O)c3c2CCC(=O)N3)cc1OC (stereo not drawn) [Compound D, 8-Hydroxy-5-[2-hydroxy-3-(β-3,4-dimethoxyphenethylamino)]propoxy-3,4-dihydrocarbostyril hydrochloride]	17.0	14.0	Intraocular pressure 30 minutes after instillation (intraocular pressure; individual animal): 17 mm Hg
C#CCOc1ccc(OCC(O)CNCCc2ccc(OC)c(OC)c2)c2c1NC(=O)CC2.O=C(O)C(=O)O (stereo not drawn) [Compound K, 8-Propynyloxy-5-[2-hydroxy-3-(β-3,4-dimethoxyphenethylamino)]propoxy-3,4-dihydrocarbostyril oxalate]	18.5	18.0	Intraocular pressure before instillation, average (intraocular pressure; average of animals, baseline): 19.5 mm Hg; Intraocular pressure 30 minutes after instillation (intraocular pressure; individual animal): 19 mm Hg and 18 mm Hg; Intraocular pressure 1 hour after instillation (intraocular pressure; individual animal): 18 mm Hg; Intraocular pressure before instillation (intraocular pressure; individual animal, baseline): 20 mm Hg and 19 mm Hg
CCN1C(=O)CCc2c(OCC(O)CNC3CCCCC3)cccc21 (centres unmarked) [Compound H, 1-Ethyl-5-(2-hydroxy-3-cyclohexylamino)propoxy-3,4-dihydrocarbostyril hydrochloride]	15.5	15.5	–
C=CCN1C(=O)CCc2c(OCC(O)CNC(C)(C)C)cccc21 (centres unmarked) [Compound N, 1-Allyl-5-(2-hydroxy-3-tert-butylamino)propoxy-3,4-dihydrocarbostyril hydrochloride]	17.5	16.5	–
O=C1CCc2c(cccc2OCC(O)CNCc2ccccc2)N1 (centres unmarked) [Compound F, 5-(2-Hydroxy-3-benzylamino)propoxy-3,4-dihydrocarbostyril hydrochloride]	18.5	18.5	–
CC(C)(C)NCC(O)COc1cccc2c1CCC(=O)N2 (centres unmarked) [Compound A, 5-(2-Hydroxy-3-tert-butylamino)propoxy-3,4-dihydrocarbostyril hydrochloride]	17.2	17.4	LD50 (mice): 54.4 mg/kg
CC(C)(C)NCC(O)COc1cccc2[nH]c(=O)ccc12 (centres unmarked) [Compound B, 5-(2-Hydroxy-3-tert-butylamino)propoxycarbostyril hydrochloride]	17.0	16.5	LD50 [1]: 44.6 mg/kg
O=C1CCc2c(cccc2OCC(O)CNC2CCCCC2)N1 (centres unmarked) [Compound G, 5-(2-Hydroxy-3-cyclohexylamino)propoxy-3,4-dihydrocarbostyril hydrochloride]	16.5	16.5	–
CC(C)NCC(O)COc1cccc2c1NC(=O)CC2 (centres unmarked) [Compound I, 8-(2-Hydroxy-3-isopropylamino)propoxy-3,4-dihydrocarbostyril hydrochloride]	16.5	16.5	LD50 [1]: 81.6 mg/kg
COc1ccc(CCNCC(O)COc2ccc(NC(N)=O)c3c2CCC(=O)N3)cc1OC (stereo not drawn) [Compound J, 8-Ureido-5-[2-hydroxy-3-(β-3,4-dimethoxyphenethylamino)]propoxy-3,4-dihydrocarbostyril hydrochloride]	17.5	17.0	LD50 [1]: 143 mg/kg
CCNCC(O)COc1cccc2c1CCC(=O)N2 (centres unmarked) [Compound E, 5-(2-Hydroxy-3-ethylamino)propoxy-3,4-dihydrocarbostyril maleate]	18.0	17.0	–
COc1ccc(CCNCC(O)COc2ccc(OCC(C)=O)c3c2CCC(=O)N3)cc1OC (stereo not drawn) [Compound C, 8-Methylcarbonylmethoxy-5-[2-hydroxy-3-(β-3,4-dimethoxyphenethylamino)]propoxy-3,4-dihydrocarbostyril oxalate]	17.0	17.0	LD50 [2]: 1260 mg/kg
C=CCOc1ccc(OCC(O)CNC(C)(C)C)c2c1NC(=O)CC2 (centres unmarked) [Compound M, 8-Allyloxy-5-(2-hydroxy-3-tert-butylamino)propoxy-3,4-dihydrocarbostyril hydrochloride]	19.0	18.0	Intraocular pressure 30 minutes after instillation (intraocular pressure; individual animal): 19 mm Hg; Intraocular pressure 1 hour after instillation (intraocular pressure; individual animal): 18 mm Hg
